≈ marks a conversion by molar mass, not a printed value. A value given as a limit tells only on which side of the number the result lay.

For one series, the system named is B. subtilis 168. The series can be described thus: Antibacterial susceptibility test (MIC, microbroth dilution). It counts as cell-based. Conditions: Bacillus subtilis, 168; 18 hours at 37° C., >90% inhibition of bacterial growth; read-out: MIC, BS 168. The source says:
(§1) The bacterial strains used in microbial susceptibility test were E. coli, S. aureus 29213 and B. subtilis 168. E. coli and S. aureus 29213 were obtained from the laboratory of the Hong Kong Polytechnic University. B. subtilis 168 was purchased from American Type Culture Collection (USA). The mammalian cell lines L929 (mouse peritoneal fibroblast), LCC6 (a wild type breast cancer cell line), LCC6MDR (P-gp over-expressed breast cancer cell line) were stocks in our department. Nutrient Agar, tryptone and yeast extract were purchased from Oxoid Limited (Nepean, Ontario, Canada). Luria-Bertani (LB) medium was prepared from 2 g tryptone, 1 g yeast extract, and 2 g sodium chloride in 200 ml deionized water and sterilized. Müller-Hinton broth (MHB), cation-adjusted Müller-Hinton broth (MHB) and trypticase soy broth (TSB) for microbial susceptibility test were purchased from Becton, Dickinson and Company (New Jersey, USA). A microplate reader (Bio-Rad Laboratories Model 680) is used to measure bacterial growth and cytotoxicity. An Olympus FSX100® Bio Imaging Navigator Microscope was used to observe the morphology of B. subtilis cell.
(§2) The minimum inhibitory concentration (MIC) of each compound was determined using microbroth dilution method according to the National Committee for Clinical Laboratory Standards (CLSI) guidelines. All Compounds were dissolved in DMSO and diluted in a serial two-fold manner. A single colony of bacterial strain on a TSB agar plate was inoculated in 5 mL MHB or CA-MHB. The bacterial cells were incubated at 37° C. until the optimal density (OD600) of the growing cells reached 1.0. The cells were then diluted to a final concentration of approximately 5×10^5 CFU/mL in a serial two-fold manner in a 96-well microtiter plate (Iwaki, Japan). Compound 3 and PC190723 were used as positive controls. […] Table 1 below summarizes the MIC of all synthesized compounds.
For orientation: Broth dilution looks for growth in wells or tubes with falling amounts of substance.

In another series the test system is E. coli. Described as above. Type of series: cell-based. To be noted: Escherichia coli; 18 hours at 37° C., >90% inhibition of bacterial growth.
Text: as §1, §2

The next series relates to S. aureus 29213. Described as above. Type of series: cell-based. To be noted: Staphylococcus aureus, 29213; 18 hours at 37° C., >90% inhibition of bacterial growth.
Text: as §1, §2

Series [1] can be described thus: Cytotoxicity test (MTS/PMS). Type of series: cell-based. To be noted: human, LCC6MDR cells (P-gp over-expressed breast cancer cell line); 3 days at 37° C.
Text: as §1, with “cell. The cell lines used in cytotoxicity test were stocks in our department. In this assay, a mouse fibroblast cell line (L929), a wild type breast cancer cell line (LCC6) and a P-gp-over-expressed breast cancer cell line (LCC6MDR) were mixed with compounds of various concentrations and made up to a final volume of 100 μL in 96-well plates. The cells were then incubated at 37° C. for 3 days. […] The MTS/PMS mixture (10 μL) was added into each well, and the plate was incubated at 37° C. for 2 hours. The absorbance at 490 nm was then measured with a microplate absorbance reader (Bio-Rad). The IC50 values were calculated using GraphPad (Prism 4.0). The selective index of each compound was calculated from the ratio between the toxicity level of L929 and the MIC value of S. aureus 29213. […] Two promising compounds […] were chosen to test on three mammalian cell lines.” for “cell.”

Series [2] deals with L929 (mouse fibroblast cell line). As to the kind of experiment: Cytotoxicity test (MTS/PMS). Type of series: cell-based. Conditions: L929, 72 h, 3 days at 37° C.
Text: as §1, with “cell. The cell lines used in cytotoxicity test were stocks in our department. In this assay, a mouse fibroblast cell line (L929), a wild type breast cancer cell line (LCC6) and a P-gp-over-expressed breast cancer cell line (LCC6MDR) were mixed with compounds of various concentrations and made up to a final volume of 100 μL in 96-well plates. The cells were then incubated at 37° C. for 3 days. […] The MTS/PMS mixture (10 μL) was added into each well, and the plate was incubated at 37° C. for 2 hours. The absorbance at 490 nm was then measured with a microplate absorbance reader (Bio-Rad). The IC50 values were calculated using GraphPad (Prism 4.0). The selective index of each compound was calculated from the ratio between the toxicity level of L929 and the MIC value of S. aureus 29213. […] Two promising compounds […] were chosen to test on three mammalian cell lines.” for “cell.”

The subject of series [3] is LCC6 (wild type breast cancer cell line). As to the kind of experiment: Cytotoxicity test (MTS/PMS). It counts as cell-based. To be noted: LCC-6, 72 h; 3 days at 37° C.
Text: as §1, with “cell. The cell lines used in cytotoxicity test were stocks in our department. In this assay, a mouse fibroblast cell line (L929), a wild type breast cancer cell line (LCC6) and a P-gp-over-expressed breast cancer cell line (LCC6MDR) were mixed with compounds of various concentrations and made up to a final volume of 100 μL in 96-well plates. The cells were then incubated at 37° C. for 3 days. […] The MTS/PMS mixture (10 μL) was added into each well, and the plate was incubated at 37° C. for 2 hours. The absorbance at 490 nm was then measured with a microplate absorbance reader (Bio-Rad). The IC50 values were calculated using GraphPad (Prism 4.0). The selective index of each compound was calculated from the ratio between the toxicity level of L929 and the MIC value of S. aureus 29213. […] Two promising compounds […] were chosen to test on three mammalian cell lines.” for “cell.”

Another series has as its target T1, S. aureus FtsZ (Staphylococcus aureus, UniProt P0A031).
T1 construct: inferred from capture on a nickel chelating column and imidazole elution; made in house; host or cells: E. coli BL21
T1 sequence (P0A031 1-390): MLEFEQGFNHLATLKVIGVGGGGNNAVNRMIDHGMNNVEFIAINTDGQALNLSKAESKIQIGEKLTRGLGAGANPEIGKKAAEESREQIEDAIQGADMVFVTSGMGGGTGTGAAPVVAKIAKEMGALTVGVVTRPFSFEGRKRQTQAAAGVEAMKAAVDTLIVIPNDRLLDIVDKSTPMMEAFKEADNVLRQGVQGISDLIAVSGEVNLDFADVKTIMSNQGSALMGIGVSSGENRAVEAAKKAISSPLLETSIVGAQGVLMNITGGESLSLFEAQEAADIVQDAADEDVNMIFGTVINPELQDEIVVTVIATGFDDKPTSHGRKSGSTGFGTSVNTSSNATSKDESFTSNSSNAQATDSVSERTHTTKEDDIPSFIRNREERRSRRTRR
The series can be described thus: GTPase activity assay. It counts as biochemical. To be noted: FtsZ 7.5 μM, GTP 500 μM, 37° C. 30 minutes. How it is done:
The GTPase activity of S. aureus FtsZ was determined in a 96-well microplate using a CytoPhos™ phosphate assay Biochem Kit™ (Cytoskeleton, USA) which measured the concentration of inorganic phosphate released during the hydrolysis of GTP. Recombinant S. aureus FtsZ (7.5 μM) was incubated with serial dilutions of the compounds in 50 mM MOPS buffer (pH 6.5) at 25° C. for 10 minutes. The control contained 1% DMSO only. KCl (final concentration: 200 mM) and MgCl2 (final concentration: 5 mM) were then added to the mixture. The mixture was incubated with GTP (final concentration: 500 μM) at 37° C. for 30 minutes. The insoluble polymer was removed by centrifugation at 13,500 rpm at room temperature for 1 minute. 80 μL supernatant was transferred to a well of a 96-well microplate and incubated with 120 μL of Cytophos reagent at room temperature for 10 minutes. The inorganic phosphate in the mixture was determined by measuring the absorbance at 650 nm in a 96-well microplate reader (BioRad 680). The results from the samples were reported with reference to the control. Three independent experiments were carried out for each compound concentration.

In general, MIC refers to the smallest concentration in the dilution series that meets the test's criterion for growth inhibition. For orientation: IC50 means the midpoint of a concentration-inhibition curve. A high value points to weaker potency. In the case of `CCCCCCCCCNc1ccc(F)c(C(N)=O)c1F` [Compound F332, 2,6-difluoro-3-(nonylamino)benzamide], the values for the MIC in the series on B. subtilis 168, in the series with E. coli and in the series on S. aureus 29213 were 3.13 µM (≈ 0.934 µg/mL), above 100 µM and 12.5 µM (≈ 3.73 µg/mL), respectively. The compound further came in with an IC50 at 3 days in series [1] above 100 µM. In addition, the IC50 was above 100 µM in series [2] and 78 µM in series [3]. Moreover, the “effect on GTPase activity of S. aureus FtsZ” value on S. aureus FtsZ was “no significant change of the GTPase activity”.

For `CCCCCCCCCN(C)c1ccc(F)c(C(N)=O)c1F` [Compound F361, 2,6-difluoro-3-(methyl(nonyl)amino)benzamide], the MIC was 1.57 µM (≈ 0.49 µg/mL) in the series with B. subtilis 168, above 100 µM against E. coli and 3.13 µM (≈ 0.978 µg/mL) with S. aureus 29213. The same compound showed an IC50 at 3 days in series [1] of 52 µM. The IC50 in series [2] and in series [3] was 60 µM in each case. In addition, on S. aureus FtsZ, the “effect on GTPase activity of S. aureus FtsZ” value is recorded as “no significant change of the GTPase activity”.
